Source: patent publication US11207289B2, “Use of benzofuran lignans to induce IL-25 expression and suppress mammary tumor metastasis” (ACADEMIA SINICA, priority 2016, dated 2021)

Key:
4T1-Luc2 cells = experiment: 4T1-Luc2 mammary carcinoma tumor resection model: metastasis and survival; format: in vivo, BALB/c mice
Experimental: BALB/c mice were subcutaneously injected with 4T1-Luc2 cells (5×10^5/100 μl PBS/mouse) into the fourth mammary fat pad under isoflurane anesthesia. Tumor growth was monitored by measuring the tumor volume according to the formula: volume=length×(width)^2/2. After tumors were established (180-200 mm^3) on day 14, test mice were divided into different groups (8 mice/group) and subjected to different treatments. At 15 days post tumor cell implantation, primary 4T1 tumors in situ were surgically removed by a tumor resection process. For drug treatment, mice were administered with different agents, including vehicle-control (PBS), mouse IL-25 protein (10 μg/kg, ProSpec, Vineland, N.J.), Q2-3 (2, […]; […]), by intravenous injection for 3 weeks (3 injections/week) post tumor resection. For in vivo neutralization of mouse IL-25 activity, mice were treated intraperitoneally with either 100 μg anti-mouse IL-25 (IL-17E) antibody (clone 35B; Biolegend) or isotype control rat IgG (100 μg; rat, IgG1κ; Biolegend) at days 0, 3, 6, 9, 12, 15, 18 post tumor resection. To detect metastasis of human MDA-MD-231-Luc2 tumor cells, nude mice were injected subcutaneously with 5×10^5 MDA-MD-231-Luc2 cells into the mammary fat pad under isoflurane anesthesia. After tumors were established (250-350 mm^3) on day 24, test mice were divided into different groups (8 mice/group) and subjected to different treatments. At 25 days post tumor cell implantation, primary MDA-MD-231-Luc2 tumors in situ were surgically removed by a tumor resection process. […] Bioluminescence signals from the 4T1-luc2 tumor cells in test mice were analyzed using a non-invasive IVIS imaging system (Calipers, Hopkinton, Mass.) after intraperitoneal injection of 150 mg/kg D-luciferin (NanoLight technology, Pinetop, Ariz.).
Statistical analysis was performed using an unpaired, two-tailed Student's t-test. […] Differences in tumor metastasis or mouse survival rate were determined by a log-rank (Mantel-Cox) test of the Kaplan-Meier curves. […]

human IL-25 = experiment: 3-D culture, western blot of IL-25 in WI38 fibroblasts and WI38-CM; format: cell-based
Experimental: To mimic the tumor microenvironment, a 3-dimensional (3-D) co-culture system was employed for the maintenance of mammary tumor cells and tumor-associated fibroblasts in adjacent collagen gels as reported in Rajan et al., Nature protocols, 1, 2753-2758 (2006). More specifically, rat tail collagen solution dissolved in acetic acid was neutralized by 1 N NaOH and then mixed with 10×PBS at 4° C. in a ratio of 9:1. To construct solid tumor-like cell mass, mouse (4T1 or TS/A cells) or human (MCF-7 or MDA-MB-231 cells) mammary tumor cells in each correspondent culture medium (1×10^6 cells/ml) were mixed with 4 mg/ml collagen solution in a ratio of 1:1. Four drops of collagen-tumor cell mixture ([…]) were immediately and separately loaded on culture substratum in each well of a 6-well plate. The plates were then turned-over and kept in CO2 incubator at 37° C. for collagen gelation. […]
To pull down and deplete IL-25 protein molecules in 3T3 or MDA-MB-231 cell conditioned media, the Dynabeads antibody coupling kit (Life Technology; 14311D) was used according to the manufacturer's recommendations, yielding 10 mg/ml anti-IL25 antibody (ProteinTech, Chicago, Ill.)-coupled beads. […] The antibody-pulled down proteins from 3T3-CM, NHDF-CM or WI38-CM, were detected for the content of secreted IL-25 protein in each conditioned medium using western blot analysis. […]

MDA-MB-231-Luc2 cells = experiment: MDA-MD-231-Luc2 tumor resection model in nude mice: metastasis and survival; format: in vivo; settings: Q2-3 100 μg/kg, DT 5 mg/kg

SMILES: COC(=O)/C=C/c1cc(O)c2c(c1)C(C(=O)OC)C(c1ccc(O)c(O)c1)O2 (stereo not shown) [Q2-3, methyl(E)-3-[2-(3,4-dihydroxyphenyl)-7-hydroxy-3-methoxycarbonyl-2,3-dihydro-1-benzofuran-5yl]-prop-2-enoate]
- survival rate of tumor-resected mice (4T1-Luc2 cells; 4T1 tumor resection model): significantly increased
- metastasis of 4T1 cells to the lung (luminescent activity) (4T1-Luc2 cells; ≥20 μg/kg i.v., 3 injections/week for 3 weeks post tumor resection): significantly suppress
- anti-metastatic activity compared with doxorubicin (2 mg/kg) (4T1-Luc2 cells; ≥20 μg/kg, luciferase activity): much higher anti-metastatic activity than treatment with doxorubicin
- expression of IL-25 in human (WI38) fibroblasts (human IL-25; 3-D culture, treatment 24 h or 72 h): increased
- level of secreted IL-25 in fibroblast-conditioned medium vs untreated (human IL-25; WI38-CM): significantly higher
- survival rate (MDA-MB-231-Luc2 cells): more effective than treatment with DT
- anti-metastatic activity (luminescent activity of MDA-MB-231-Luc2 cells) (MDA-MB-231-Luc2 cells; i.v. 3 weeks post tumor resection): more effective than treatment with DT
